# Experimental data published in PMC12636028, “Rate-Tunable, Metal-Mediated Amide Bond Cleavage for the Controlled Release of Pharmaceuticals” (Journal of the American Chemical Society, 2025).
# Read-outs that look alike come from different tables or passages of the source.
# Assays:
# [1] = cleavage assay of cold (natural metal) model tripeptide complexes, monitored by HPLC; type: physicochemical; settings: for kobs: Ga complex, pseudo first-order
# Excerpt: Following our previous work focused on N, O acyl shift compatible chelate conjugates, we originally sought to accelerate amide bond cleavage by N-methylation, to enhance the peptide’s leaving group character. We initiated the study by synthesis of a model tripeptide sequence which is capped at the N-terminus by the aza-macrocyclic 1,4,7-triazacyclononane-1,4,7-triacetic acid (NOTA) chelator previously identified as compatible with MMAAC. To this end, tripeptides with the sequence NO2A-X-G-W-NH2 (where X represents the variable complex adjacent amino acid) were constructed. Tryptophan (W) was incorporated as a spectroscopic handle for HPLC monitoring due to its characteristic absorbance at 280 nm, while glycine (G) was included as a short spacer amino acid to minimize the steric influence of W on the metal chelate. Subsequently, chelation with Ga^3+ yielded the corresponding model tripeptide metal complex, [Ga(NO2A)]^+-X-G-W-NH2. The Ga^3+ ion was selected as the gold-standard metal ion since it effectively triggered bond cleavage in the Ser model tripeptide in prior studies, but also formed a thermodynamically and kinetically inert, in vivo compatible metal complex. Following successful complexation and purification, the pH and reaction temperature of the metal complex solution were adjusted to pH 7.4 and 80 °C to initiate cleavage at a readily observable rate (Figure A). Reaction progress was monitored and quantified using high-performance liquid chromatography and mass spectrometry (HPLC-MS, Figure B,C). In the absence of a metal ion, all model tripeptides remained intact at all conditions and temperatures tested (Figures S113–S121). […] In the liquid chromatogram, a second peak with a longer retention time, with the same mass as the reactant, was observed. Previously, we hypothesized that this peak correlated to an intramolecular rearrangement prior to the subsequent amide bond cleavage as part of the N, O-acyl shift reaction.
# 3 Complex synthesis and characterization
# 3.1 General Complexation Protocol and Cleavage Assay Procedure
# A 5 mg aliquot of the compound, 10-25, was dissolved in 500 μL of room-temperature distilled water.
# Two equivalents of the natGa3+salt were added to the solution, which was left to react for 1 hour under room temperature. Full complexation was confirmed by LCMS. The complex was then purified via Sep-Pak C18 short cartridge. The concentration was determined by ICP-OES. The complexes were further characterized via HPLC and HR-ESI-MS.
# Cleavage of the cold model tripeptide complexes (0.75 mM, determined by ICP-OES) was observed under 80 °C and pH 7.4. Aqueous buffer solutions were prepared using 10 mM NaOAc (pH 4.5), 10 mM […]
# The complex was formed in pH 4.5 10 mM NaOAc buffer under room temperature. An aliquot of the complex was placed in an aqueous solution of the desired pH and incubated for 24 hours at 80 °C. The reaction was monitored via analytical HPLC (Method A). […]
# natGallium 2,2'-(7-(2-(benzylamino)-2-oxoethyl)-1,4,7-triazonane-1,4-diyl)diacetic acid, Ga(26). […]
# The concentration of Ga(NO3)3 was determined by ICP-OES. The pH of the solution was adjusted to pH = 5 by adding 4 equivalents of 1 M KOH solution. […]
# natGallium 2,2'-(7-(2-(benzyl(methyl)amino)-2-oxoethyl)-1,4,7-triazonane-1,4-diyl)diacetic acid, [Ga(27)]ClO4. A 15 mg aliquot of compound 27 was dissolved in 500 μL of room temperature distilled […]
# water. […]
# [2] = for half-life of model tripeptide: buffer, pH 7.4; for autolytic release of [67Ga]Ga(NOTA): 67Ga-radiolabeled
# Experimental: 4.1 Radiolabeling with 68Ga and Cleavage Assay in HEPES buffer
# 68Ga-chloride was obtained from the University of Wisconsin Radiopharmaceutical Production Facility, at
# an average specific activity of 20 mCi/mL. For radio-labeling of model tripeptides and Ahx-KuE peptide
# conjugates, a 35 μL aliquot containing 0.7 mCi of 68GaCl3 was added to the ligand (10 nmol, 265 µL) in
# 0.067 M of sodium acetate (NaOAc) buffer pH 4.5. Radiolabeling was completed after 15 minutes at
# room temperature. The pH of the solution was then adjusted to 7.4 by pH 7.4 1 M HEPES buffer.
# radiolabeled conjugates were further characterized with radio-HPLC; if the radiochemical yield was
# <98%, a chromatographic purification of the crude radiolabeling mixture was performed. The cleavage of
# the radiolabeled conjugates was monitored via radio-HPLC at 80 °C and pH 7.4.
# 67Ga-citrate was purchased from Jubilant Radiopharma at an average specific activity of 140.0 MBq/mL.
# The 67Ga-citrate solution was first converted to 67GaCl using an established solid phase extraction
# protocol. The resulting converted 67GaCl3 fraction with the specific activity of 962 MBq/mL was used for
# radiolabeling. For radio-labeling of model tripeptides and Ahx-KuE peptide conjugates, a 25 μL aliquot
# containing 0.45 mCi of 67GaCl3 was added to the ligand (10 nmol, 110 µL) in 0.15 M of sodium acetate
# (NaOAc) buffer pH 4.5. Radiolabeling was completed after 10 minutes at room temperature. The pH of
# the solution was then adjusted to 7.4 by adding pH 7.4 1 M HEPES buffer (final concentration: 0.25 M).
# The radiolabeled conjugates were further characterized with radio-HPLC; if the radiochemical yield was
# the radiolabeled conjugates was monitored via radio-HPLC at 37 °C and 80 °C at pH 7.4.
# For radio-labeling of model tripeptides and Ahx-KuE peptide conjugates, a 25 μL aliquot containing 0.3
# mCi of 67GaCl3 was added to the ligand (10 nmol, 110 µL) in 0.15 M of sodium acetate (NaOAc) buffer
# pH 4.5. Radiolabeling was completed after 10 minutes at room temperature. The radiolabeled complexes
# were further characterized by radio-HPLC. The pH of the solution was then adjusted to 7.4 by adding pH
# 7.4 1M HEPES buffer. Into the buffered mixture was added equal volume of mouse plasma (buffered
# radiolabeled complex : mouse plasma 1:1). The cleavage of the radiolabeled conjugates was monitored
# via radio-HPLC at 37 °C. At each time point, an aliquot of 20 – 40 µL sample was removed from the
# tube. Plasma protein was precipitated by adding 20 – 40 µL of cold acetonitrile. After centrifugation at
# 4000 rpm for 10 minutes, the supernatant was collected and diluted in 40 – 70 µL H2O for radio-HPLC
# [3] = type: in vitro ADME; settings: mouse, plasma
# Excerpt: (§1) The cleavage of the radiolabeled conjugates was monitored
# (§2) tube. […] After centrifugation at […]
# [4] = type: physicochemical; settings: buffer, pH 7.4
# Excerpt: as §1, §2
# [5] = cleavage assays in H2O and D2O for kinetic isotopic effect; type: physicochemical; settings: Ga complex 0.75 mM, pH 7.4 HEPES, 80 °C
# Excerpt: Therefore, we conducted additional Kinetic isotopic effect (KIE) measurements for Met (15) and ^NMeMet (18) conjugates, which were chosen to avoid alternative reaction mechanisms. Our experiments determined KIE values (1.46 for Met, 2.81 for ^NMeMet) that imply a secondary KIE, where the proton transfer is not rate-limiting (Figures S262–S265). […] Reaction rates in phosphate buffered saline (PBS) were accelerated, motivating investigation of biologically relevant systems.
# 5.3 Cleavage assays in H2O and D2O for kinetic isotopic effect measurement Cold cleavage assays of [Ga(15)]+ were conducted in H2O and D2O to investigate the kinetic isotopic effects. In an Eppendorf tube, Ga complexes (0.75 mM) were initially prepared in H2O according to general complexation protocol Section 3.1. The solvent was lyophilized, and the complexes were redissolved in D2O. To minimize residual H2O, the D2O was lyophilized and redissolved three times. The Ga complexes were then redissolved in D2O to a final concentration of 0.75 mM. The solution was buffered to pH 7.4 by adding pH 7.4 HEPES buffer. Cleavage reactions were performed at 80 °C and monitored by analytical HPLC.
# Figure S262. Schematic description of preparation and direct complexation procedure of [natGa(15)]+.
# Analytical HPLC chromatograms showing autolytic release of the product, natGa-NOTA, in H2O. The kinetics data was fit using Yt = -kt+Y0 in Excel, where Yt represents the ln([concentration of intact species]) in mM, k represents the pseudo first-order reaction rate in hour-1, t represents the incubation time in hour, and Y0 presents the ln([initial concentration of intact species]) in mM.
# (1 picture or pasted object on this page, not shown here)
# Cold cleavage assays of [Ga(19)]+ were conducted in H2O and D2O to investigate the kinetic isotopic […]
# Figure S264. Schematic description of preparation and direct complexation procedure of [natGa(19)]+.
substance,measurement,setting,value
"68Gallium 2,2'-(7-(2-(((2R,3S)-1-((2-(((S)-1-amino-3-(1H-indol-3-yl)-1-oxopropan-2-yl)amino)-2-oxoethyl)amino)-3-hydroxy-1-oxobutan-2-yl)amino)-2-oxoethyl)-1,4,7-triazonane-1,4-diyl)diacetate [[Ga(14)]+]",cleavage after 6 h,"[1]; natGa complex, pH 7.4, 80 °C",50%
"68Gallium 2,2'-(7-(2-(((R)-1-((2-(((S)-1-amino-3-(1H-indol-3-yl)-1-oxopropan-2-yl)amino)-2-oxoethyl)amino)-1-oxopropan-2-yl)amino)-2-oxoethyl)-1,4,7-triazonane-1,4-diyl)diacetate [[Ga(12)]+]",cleavage after 6 h,"[1]; natGa complex, pH 7.4, 80 °C",20%
"68Gallium 2,2'-(7-(2-(((R)-1-((2-(((S)-1-amino-3-(1H-indol-3-yl)-1-oxopropan-2-yl)amino)-2-oxoethyl)amino)-3-hydroxy-1-oxopropan-2-yl)amino)-2-oxoethyl)-1,4,7-triazonane-1,4-diyl)diacetate [[Ga(13)]+]",half-life of model tripeptide,[2],365 h
same,half-life of model tripeptide,[3],182 h
same,half-life of model tripeptide,[4],5.20 h
"68Gallium 2,2'-(7-(2-(((R)-1-((2-(((S)-1-amino-3-(1H-indol-3-yl)-1-oxopropan-2-yl)amino)-2-oxoethyl)amino)-3-hydroxy-1-oxopropan-2-yl)(methyl)amino)-2-oxoethyl)-1,4,7-triazonane-1,4-diyl)diacetate [[Ga(16)]+]",half-life of model tripeptide,[2],3.65 h
same,cleaved after 1 h,"[1]; natGa complex, pH 7.4, 80 °C, after 1 h",100%
same,half-life of model tripeptide,[3],6.12 h
same,half-life of model tripeptide,[4],0.22 h
"68Gallium 2,2'-(7-(2-(((R)-1-((2-(((S)-1-amino-3-(1H-indol-3-yl)-1-oxopropan-2-yl)amino)-2-oxoethyl)amino)-4-(methylthio)-1-oxobutan-2-yl)(methyl)amino)-2-oxoethyl)-1,4,7-triazonane-1,4-diyl)diacetate [[Ga(18)]+]",half-life of model tripeptide,[2],28.1 h
same,pseudo first-order reaction rate in D2O,[5]; D2O,0.16 h⁻¹
same,pseudo first-order reaction rate in H2O,[5]; H2O,0.45 h⁻¹
same,KIE (kinetic isotopic effect),[5]; H2O vs D2O,2.81
same,krel (relative rate enhancement versus 25 mM pH 7.4 HEPES),"[1]; 25 mM HEPES, pH 7.4, 80 °C",1
same,krel (relative rate enhancement versus 25 mM pH 7.4 HEPES),"[1]; 25 mM PBS, pH 7.4, 80 °C",4.4
same,krel (relative rate enhancement versus 25 mM pH 7.4 HEPES),"[1]; 25 mM PIPES, pH 7.4, 80 °C",1.13
same,krel (relative rate enhancement versus 25 mM pH 7.4 HEPES),"[1]; 250 mM HEPES, pH 7.4, 80 °C",2.44
same,kobs,"[1]; 25 mM HEPES, pH 7.4, 80 °C",0.45 h⁻¹
same,kobs,"[1]; 25 mM PBS, pH 7.4, 80 °C",1.98 h⁻¹
same,kobs,"[1]; 25 mM PIPES, pH 7.4, 80 °C",0.51 h⁻¹
same,kobs,"[1]; 250 mM HEPES, pH 7.4, 80 °C",1.10 h⁻¹
same,half-life of model tripeptide,[3],151 h
same,half-life of model tripeptide,[4],0.92 h
"68Gallium (R)-2,2'-(7-(2-((2-((2-((1-amino-3-(1H-indol-3-yl)-1-oxopropan-2-yl)amino)-2-oxoethyl)amino)-2-oxoethyl)amino)-2-oxoethyl)-1,4,7-triazonane-1,4-diyl)diacetate [[Ga(10)]+]",autolytic release of [67Ga]Ga(NOTA),[2]; 37 °C and pH 7.4,no significant autolytic release
same,autolytic release of [67Ga]Ga(NOTA),[2]; 80 °C and pH 7.4,no significant autolytic release
same,half-life of model tripeptide,[2],not observed
same,hydrolysis of the Ga complex,"[1]; pH 4.5, 80 °C",hydrolyzed
same,hydrolysis of the Ga complex,"[1]; pH > 5, 80 °C",inert
same,half-life of model tripeptide,[3],not observed
same,half-life of model tripeptide,[4],not obser ved
